LD50 data for 3 compounds are collected here from patent publication US4028399A, “Carbamate” (priority 1969, dated 1977).

The subject of the assay is houseflies. Type of assay: in vivo, common houseflies. Particulars: 1 mm^3 acetonic solution to ventral abdomen under CO2 narcosis; kill rate after 4 hours. The method, then:
ADMINISTRATION TEST WITH COMMON HOUSEFLIES
1 mm^3 of the acetonic solution of the active ingredients is administered to the ventral abdomen of houseflies under CO2 narcosis. The kill rate on the insects thus treated is determined after 4 hours, from which the mortality curve is calculated.

Each structure is given as a SMILES string.

Turning to `CCc1cc(CC)cc(OC(=O)NC)c1` [3,5-diethyl-phenyl-N-methylcarbamate], the LD50 was 0.12 /fly.
`CNC(=O)Oc1cc(C)cc(C(C)C)c1` [Comparative substance II, 3-isopropyl-5-methyl-N-methylcarbamate]: the LD50 is 0.26 /fly.
In the case of `CNC(=O)Oc1cc(C)c(C)cc1Cl` [Comparative substance III, 3,4-dimethyl-6-chloro-N-methylcarbamate] it was 10.0 /fly.
